Patent publication US20260274895A1, “DE NOVO DESIGNED MEMBRANE-TRAVERSING AND ORALLY BIOAVAILABLE MACROCYCLES” (UNIVERSITY OF WASHINGTON, priority 2022, published 2026)
Where a SMILES comes first, the peptide text is derived from it. [ ]: non-standard residue; d: D form. NMeF = CN[C@@H](Cc1ccccc1)C(=O)O; NMeI = CC[C@H](C)[C@H](NC)C(=O)O; NMeL = CN[C@@H](CC(C)C)C(=O)O; dNMeL = CN[C@H](CC(C)C)C(=O)O; NMeV = CN[C@H](C(=O)O)C(C)C; NMeA = CN[C@@H](C)C(=O)O; Nle = CCCC[C@H](N)C(=O)O; dNMeA = CN[C@H](C)C(=O)O

Details: PAMPA

Structure (SMILES): CC[C@H](C)[C@@H]1NC(=O)CNC(=O)[C@@H]2CCCN2C(=O)[C@H]2CCCN2C(=O)[C@H]([C@@H](C)CC)NC(=O)[C@@H](C)N(C)C(=O)[C@@H]2CCCN2C(=O)[C@H](C(C)C)NC(=O)[C@@H](CC(C)C)NC1=O [Design D9.33, pPGIlVP*aI] (cyclo(GI[dL]VP[dNMeA]I[dP]P))
- PAMPA_Papp_Avg (apparent permeability): 0.317 ×10⁻⁶ cm/s

Structure (SMILES): CCCC[C@@H]1NC(=O)[C@H]2CCCN2C(=O)[C@H](C(C)C)NC(=O)[C@@H](CC(C)C)N(C)C(=O)[C@H](Cc2ccccc2)NC(=O)[C@H](CC(C)C)NC(=O)[C@@H](CC(C)C)N(C)C(=O)[C@@H]2CCCN2C(=O)[C@@H](CC(C)C)NC1=O [Design D9.40, pMlP*lLF*lV] (cyclo(F[dNMeL]V[dP][Nle][dL]P[dNMeL]L))
- PAMPA_Papp_Avg (apparent permeability): 0.238 ×10⁻⁶ cm/s

Structure (SMILES): CC[C@H](C)[C@@H]1NC(=O)[C@H]2CCCN2C(=O)[C@@H]2CCCN2C(=O)[C@H](C(C)C)NC(=O)[C@@H](C(C)C)NC(=O)[C@H](Cc2ccccc2)N(C)C(=O)[C@H]2CCCN2C(=O)[C@@H](CC(C)C)N(C)C(=O)[C@@H](CC(C)C)NC1=O [Design D9.42, pIl*lp*FvVP] (cyclo(I[dL][dNMeL][dP][NMeF][dV]VP[dP]))
- PAMPA_Papp_Avg (apparent permeability): 1.12 ×10⁻⁶ cm/s

Structure (SMILES): CC(C)C[C@@H]1NC(=O)[C@@H](CC(C)C)NC(=O)[C@@H]2CCCN2C(=O)[C@@H](CC(C)C)NC(=O)[C@H](C)N(C)C(=O)[C@H](C)NC(=O)[C@H](CC(C)C)N(C)C(=O)[C@@H]2CCCN2C(=O)[C@H](CC(C)C)NC(=O)[C@H](CC(C)C)N(C)C1=O [Design D10.16, lL*LLP*LA*AlP] (cyclo(A[NMeA][dL]P[dL]L[NMeL]LP[NMeL]))
- PAMPA_Papp_Avg (apparent permeability): 2.27 ×10⁻⁶ cm/s

Structure (SMILES): CC[C@H](C)[C@H]1C(=O)N[C@H](C)C(=O)N[C@@H](CC(C)C)C(=O)N[C@@H](C(C)C)C(=O)N2CCC[C@@H]2C(=O)N(C)[C@@H](CC(C)C)C(=O)N[C@@H](C(C)C)C(=O)N2CCC[C@H]2C(=O)N(C)[C@H](CC(C)C)C(=O)N[C@@H](C(C)C)C(=O)N1C [Design D10.19, aLVp*LVP*lV*I] (cyclo(LV[dP][NMeL]VP[dNMeL]V[NMeI][dA]))
- PAMPA_Papp_Avg (apparent permeability): 6.36 ×10⁻⁶ cm/s

Structure (SMILES): CC(C)C[C@@H]1NC(=O)[C@@H](Cc2ccccc2)NC(=O)[C@@H](CC(C)C)N(C)C(=O)[C@@H]2CCCN2C(=O)[C@H](C)NC(=O)[C@@H](CC(C)C)N(C)C(=O)[C@@H]2CCCN2C(=O)[C@H](CC(C)C)N(C)C(=O)[C@H](CC(C)C)N(C)C(=O)[C@H](C(C)C)NC1=O [Design D10.20, P*lAP*lfLV*L*L] (cyclo(AP[dNMeL][dF]LV[NMeL][NMeL]P[dNMeL]))
- PAMPA_Papp_Avg (apparent permeability): 2.59 ×10⁻⁶ cm/s

Structure (SMILES): CC(C)[C@@H]1NC(=O)[C@H]2CCCN2C(=O)[C@@H](C(C)C)NC(=O)[C@@H]2CCCN2C(=O)[C@H](Cc2ccccc2)NC(=O)[C@H](Cc2ccccc2)NC(=O)[C@H]2CCCN2C(=O)[C@@H](C(C)C)NC(=O)[C@@H]2CCCN2C(=O)[C@H](C(C)C)NC1=O [Design D10.27, PvpVVPvpFF] (cyclo(FFP[dV][dP]VVP[dV][dP]))
- PAMPA_Papp_Avg (apparent permeability): 0.49 ×10⁻⁶ cm/s

Structure (SMILES): CC(C)C[C@@H]1C(=O)N[C@@H](C)C(=O)N[C@H](CC(C)C)C(=O)N(C)[C@@H](C)C(=O)N2CCC[C@@H]2C(=O)N2CCC[C@@H]2C(=O)N2CCC[C@@H]2C(=O)N2CCC[C@H]2C(=O)N[C@H](C(C)C)C(=O)N(C)[C@@H](CC(C)C)C(=O)N1C [Design D10.28, l*ApppPv*L*lA] (cyclo([dV][NMeL][dNMeL]A[dL][NMeA][dP][dP][dP]P))
- PAMPA_Papp_Avg (apparent permeability): 0.184 ×10⁻⁶ cm/s

Structure (SMILES): CC(C)C[C@@H]1C(=O)N(C)[C@H](C)C(=O)N(C)[C@@H](C(C)C)C(=O)N2CCC[C@@H]2C(=O)N[C@H](C)C(=O)N[C@@H](Cc2ccccc2)C(=O)N2CCC[C@@H]2C(=O)N2CCC[C@H]2C(=O)N[C@H](C(C)C)C(=O)N[C@@H](C(C)C)C(=O)N1C [Design D10.29, FpPvV*l*a*Vpa] (cyclo([dV]V[dNMeL][dNMeA][NMeV][dP][dA]F[dP]P))
- PAMPA_Papp_Avg (apparent permeability): 0.441 ×10⁻⁶ cm/s
